Measurements published in ChEMBL document CHEMBL4811222, “Antitumor Activity of Asperphenin B by Induction of Apoptosis and Regulation of Glyceraldehyde-3-phosphate Dehydrogenase in Human Colorectal Cancer Cells” (J Nat Prod, 2021).
Calls of active or inactive are those of the source. The rule behind the calls is not given here.

Assays:
[1] = molecular target: Glyceraldehyde-3-phosphate dehydrogenase (Homo sapiens) (UniProt P04406); experiment: Inhibition of GAPDH activity (unknown origin) after 1 hr; conditions: dose 0.01-10 µM
RKO [2] = experiment: Antiproliferative activity against human RKO cells over expressing GAPDH at 1 to 8 uM after 72 hrs by SRB assay; type: functional, cell-based; conditions: dose 1-8 µM
RKO [3] = experiment: Induction of cell cycle arrest in human RKO cells assessed as accumulation at G2/M phase at 2.5 uM after 48 hrs by RNase A/propidium iodide staining based flow cytometric analysis (reference value: 24.63 %); type: functional
RKO [4] = experiment: Induction of cell cycle arrest in human RKO cells assessed as accumulation at sub-G1 phase at 2.5 uM after 24 hrs by RNase A/propidium iodide staining based flow cytometric analysis (reference value: 0.89 %); type: functional
RKO [5] = experiment: Induction of apoptosis in human RKO cells assessed as increase in cleaved caspase 3 expression at 2.5 uM measured upto 48 hrs by Western blotting analysis; type: functional, cell-based; conditions: time hrs <=48
RKO [6] = experiment: Induction of apoptosis in human RKO cells assessed as modulation of p53 expression level after 48 hrs by Western blotting analysis; type: functional, cell-based; conditions: dose 2.5-10 µM
RKO [7] = experiment: Induction of cell cycle arrest in human RKO cells assessed as accumulation at G0/G1 phase at 2.5 uM after 48 hrs by RNase A/propidium iodide staining based flow cytometric analysis (reference value: 60.58 %); type: functional
RKO [8] = experiment: Induction of cell cycle arrest in human RKO cells assessed as accumulation at S phase at 5 uM after 24 hrs by RNase A/propidium iodide staining based flow cytometric analysis (reference value: 24.20 %); type: functional
RKO [9] = experiment: Induction of cell cycle arrest in human RKO cells assessed as inactivation of Cdc25C protein at 1.25 to 5 uM measured after 24 hrs by Western blot analysis; type: functional, cell-based; conditions: dose 1.25-5 µM
SW480 = experiment: Antiproliferative activity against human SW480 cells assessed as inhibition of cell growth incubated for 72 hrs by SRB assay; type: functional, cell-based; conditions: SW480, 72 h
HCT-116 [10] = experiment: Upregulation of E-cadherin expression in […] at 3 to 6 uM after 24 hrs by Western blotting analysis; type: functional, cell-based; conditions: dose 3-6 µM
RKO [11] = experiment: Induction of cell cycle arrest in human RKO cells assessed as upregulation of phospho-Chk2 expression at 1.25 to 5 uM measured after 24 hrs by Western blot analysis; type: functional, cell-based; conditions: dose 1.25-5 µM
RKO [12] = experiment: Induction of apoptosis in human RKO cells assessed as modulation of cleaved PARP expression level after 48 hrs by Western blotting analysis; type: functional, cell-based; conditions: dose 2.5-10 µM
RKO [13] = experiment: Induction of cell cycle arrest in human RKO cells assessed as accumulation at S phase at 2.5 uM after 48 hrs by RNase A/propidium iodide staining based flow cytometric analysis (reference value: 13.33 %); type: functional
RKO [14] = experiment: Antitumor activity against human RKO cells implanted in BALB/c nude mouse assessed as inhibition of tumor growth at 8 mg/kg, ip administered three times per week for 21 days and measured every 3 to 4 days by electronic caliper method; type: functional; conditions: 504 h, time 21 day, read-out: TGI
RKO [15] = experiment: Induction of cell cycle arrest in human RKO cells assessed as accumulation at G2/M phase at 5 uM after 24 hrs by RNase A/propidium iodide staining based flow cytometric analysis (reference value: 24.38 %); type: functional
RKO [16] = experiment: Induction of cell cycle arrest in human RKO cells assessed as accumulation at sub-G1 phase at 2.5 uM after 36 hrs by RNase A/propidium iodide staining based flow cytometric analysis (reference value: 0.89 %); type: functional
HCT-116 [17] = experiment: Antiproliferative activity against human HCT-116 cells assessed as inhibition of cell growth incubated for 72 hrs by SRB assay; type: functional, cell-based; conditions: HCT-116, 72 h
RKO [18] = experiment: Antitumor activity against human RKO cells implanted in ip dosed BALB/c nude mouse assessed as suppression of GAPDH expression in tumor lysates administered three times per week for 21 days by Western blotting analysis; type: functional, organism-based; conditions: Neoplasm, time 21.0 day
RKO [19] = experiment: Induction of cell cycle arrest in human RKO cells assessed as accumulation at S phase at 2.5 uM after 12 hrs by RNase A/propidium iodide staining based flow cytometric analysis (reference value: 13.33 %); type: functional
HCT-116 [20] = experiment: Downregulation of N-Cadherin expression in […] at 3 to 6 uM after 24 hrs by Western blotting analysis; type: functional, cell-based; conditions: dose 3-6 µM
RKO [21] = experiment: Induction of cell cycle arrest in human RKO cells assessed as accumulation at S phase at 1.25 uM after 24 hrs by RNase A/propidium iodide staining based flow cytometric analysis (reference value: 24.20 %); type: functional
RKO [22] = experiment: Induction of cell cycle arrest in human RKO cells assessed as accumulation at sub-G1 phase at 2.5 uM after 12 hrs by RNase A/propidium iodide staining based flow cytometric analysis (reference value: 0.89 %); type: functional
RKO [23] = experiment: Induction of cell cycle arrest in human RKO cells assessed as upregulation of p-Cdc2 at Y15 residue expression measured after 24 hrs by Western blot analysis; type: functional, cell-based; conditions: dose 1.25-5 µM
CCD-841CoN = experiment: Antiproliferative activity against human CCD-841CoN cells assessed as inhibition of cell growth incubated for 72 hrs by SRB assay; type: cell-based
RKO [24] = experiment: Induction of E-cadherin expression in human RKO cells after 24 hrs by Western blotting analysis; type: functional, cell-based
RKO [25] = experiment: Induction of apoptosis in human RKO cells assessed as modulation of survivin expression level after 48 hrs by Western blotting analysis; type: functional, cell-based; conditions: dose 2.5-10 µM
RKO [26] = experiment: Induction of cell cycle arrest in human RKO cells assessed as accumulation at G0/G1 phase at 5 uM after 24 hrs by RNase A/propidium iodide staining based flow cytometric analysis (reference value: 51.49 %); type: functional
HCT-116 [27] = experiment: Antimigratory activity against human HCT116 cells implanted in nude mouse assessed as inhibition of liver cells migration after 24 hrs by wound healing assay; type: functional, cell-based; conditions: dose 3-6 µM
RKO [28] = experiment: Antiproliferative activity against human RKO cells assessed as inhibition of cell growth incubated for 72 hrs by SRB assay; type: functional, cell-based
RKO [29] = experiment: Induction of cell cycle arrest in human RKO cells assessed as accumulation at G0/G1 phase at 1.25 uM after 24 hrs by RNase A/propidium iodide staining based flow cytometric analysis (reference value: 51.49 %); type: functional
RKO [30] = experiment: Induction of apoptosis in human RKO cells assessed as total apoptotic cells at 2.5 uM after 48 hrs by Annexin V/PI staining based flow cytometric analysis; type: functional
RKO [31] = experiment: Induction of apoptosis in human RKO cells assessed as increase in cleaved PARP expression at 2.5 uM measured upto 48 hrs by Western blotting analysis; type: functional, cell-based; conditions: time hrs <=48
RKO [32] = experiment: Induction of cell cycle arrest in human RKO cells assessed as upregulation of phospho-Chk1 expression at 1.25 to 5 uM measured after 24 hrs by Western blot analysis; type: functional, cell-based; conditions: dose 1.25-5 µM
RKO [33] = experiment: Induction of cell cycle arrest in human RKO cells assessed as accumulation at G2/M phase at 2.5 uM after 24 hrs by RNase A/propidium iodide staining based flow cytometric analysis (reference value: 24.63 %); type: functional
RKO [34] = experiment: Induction of cell cycle arrest in human RKO cells assessed as accumulation at S phase at 2.5 uM after 24 hrs by RNase A/propidium iodide staining based flow cytometric analysis (reference value: 13.33 %); type: functional

Chain of Glyceraldehyde-3-phosphate dehydrogenase (Homo sapiens) (P04406 2-335 limits assumed): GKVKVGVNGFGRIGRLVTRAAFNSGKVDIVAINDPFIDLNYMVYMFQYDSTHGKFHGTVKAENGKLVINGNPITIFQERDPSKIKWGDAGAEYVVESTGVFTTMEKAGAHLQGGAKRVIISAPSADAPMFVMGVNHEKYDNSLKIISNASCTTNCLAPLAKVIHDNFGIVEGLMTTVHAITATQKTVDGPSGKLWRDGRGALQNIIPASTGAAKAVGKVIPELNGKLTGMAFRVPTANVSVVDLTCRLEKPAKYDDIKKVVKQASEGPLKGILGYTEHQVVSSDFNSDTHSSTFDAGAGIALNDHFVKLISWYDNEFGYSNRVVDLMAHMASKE

For `CCCCCCCCC[C@@H](O)CC(=O)N[C@@H](CC(N)=O)C(=O)N[C@@H](CCC(N)=O)C(=O)N[C@H](CC(=O)c1cc(C)cc(O)c1C(=O)c1c(O)cccc1O)CC(C)C`, the inhibition [1] was “Dose-Dependent Effect”, the Activity (RKO [2]) was “Active” and the Activity (RKO [3]) was 41.66%. The Activity (RKO [4]) was 1.22%, the Activity (RKO [5]) was “Active” and the Activity (RKO [6]) was “Dose-Dependent Effect”. The Activity (RKO [7]) was 30.27%, the Activity (RKO [8]) was 22.13% and the Activity (RKO [9]) was “Active”. The IC50 (SW480) was 2.37 µM, the Activity (HCT-116 [10]) was “Active” and the Activity (RKO [11]) was “Active”. For the same compound, the Activity (RKO [12]) was “Dose-Dependent Effect”, the Activity (RKO [13]) was 10.43% and the inhibition in vivo at 8 mg/kg (RKO [14]) was 57.1%. For the same compound, the Activity (RKO [15]) was 51.77%, the Activity (RKO [16]) was 3.74% and the IC50 (HCT-116 [17]) was 3.12 µM. For the same compound, the Activity (RKO [18]) was “Dose-Dependent Effect”, the Activity (RKO [19]) was 16.82% and the Activity (HCT-116 [20]) was “Active”. The Activity (RKO [21]) was 23.61%, the Activity (RKO [22]) was 0.88% and the Activity (RKO [23]) was “Dose-Dependent Effect”. The IC50 (CCD-841CoN) was 47.2 µM, the Activity (RKO [24]) was “Active” and the Activity (RKO [25]) was “Dose-Dependent Effect”. The Activity (RKO [26]) was 25.55%, the inhibition (HCT-116 [27]) was “Dose-Dependent Effect” and the Activity (RKO [28]) was “Dose-Dependent Effect”. The IC50 (RKO [28]) was 0.93 µM, the Activity (RKO [29]) was 46.96% and the Activity (RKO [30]) was 15.14%. For the same compound, the Activity (RKO [31]) was “Active”, the Activity (RKO [32]) was “Active” and the Activity (RKO [33]) was 48.54%. The Activity (RKO [34]) was 16.64%.
